Measured values published in ChEMBL document CHEMBL1201862, “PubChem BioAssay data set” (2004).
The source made the active and inactive calls.

Assays:
[1] = biological target: T1, High affinity choline transporter 1 (Homo sapiens, UniProt Q9GZV3); test: human choline transporter blockers, potency – cell-based, 5-point CRC, membrane potential dye, dose response (AID 504840); format: functional
T1 sequence (Q9GZV3 whole entry): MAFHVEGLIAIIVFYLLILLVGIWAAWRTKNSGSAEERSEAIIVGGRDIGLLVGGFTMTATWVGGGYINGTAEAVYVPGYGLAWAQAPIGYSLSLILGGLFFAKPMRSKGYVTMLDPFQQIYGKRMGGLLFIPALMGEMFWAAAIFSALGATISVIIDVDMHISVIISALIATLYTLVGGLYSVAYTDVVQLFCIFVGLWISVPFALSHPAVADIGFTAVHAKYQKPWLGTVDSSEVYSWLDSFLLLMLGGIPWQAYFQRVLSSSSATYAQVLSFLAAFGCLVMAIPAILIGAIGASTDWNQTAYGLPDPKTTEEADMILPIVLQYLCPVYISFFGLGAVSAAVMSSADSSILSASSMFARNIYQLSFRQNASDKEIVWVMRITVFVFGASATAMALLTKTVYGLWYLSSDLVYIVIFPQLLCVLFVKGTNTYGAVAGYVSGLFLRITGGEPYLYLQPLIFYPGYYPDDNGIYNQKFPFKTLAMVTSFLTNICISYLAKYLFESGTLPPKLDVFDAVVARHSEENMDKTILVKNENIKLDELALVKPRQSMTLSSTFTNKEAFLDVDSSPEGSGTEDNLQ

[2] = biological target: T1, High affinity choline transporter 1; test: human choline transporter blockers, potency – cell-based, 10-point CRC, membrane potential dye, dose response (AID 588401); format: functional;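 further: membrane potential dye fluorescence of choline-evoked depolarization via CHT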
[3] = biological target: Heat shock protein HSP 90-alpha (Homo sapiens, UniProt P07900); format: functional, organism-based
[4] = test system: Vero; test: cells; format: functional, cell-based; conditions: Chlorocebus sabaeus
[5] = reduction of Shn3 3'UTR-driven luciferase in osteoblasts – cell-based, Clone20 osteoblasts, firefly luciferase, cherry-picked, dose response (AID 624132); format: functional;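 further: firefly luciferase luminescence from reporter carrying the Shn3 3'UTR in osteoblasts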
[6] = loss of viability in HepG2 cells – cell-based, CellTiter-Glo, cherry-picked, cytotoxicity control for Shn3 inhibitor project, dose response (AID 624134); format: functional
[7] = non-specific 3'UTR reporter inhibition in Clone20-Shn3RL – cell-based, Renilla luciferase, cherry-picked, counter-screen for Shn3 inhibitor project, dose response (AID 624133); format: functional
[8] = biological target: Protein disulfide-isomerase (Homo sapiens, UniProt P07237); test: inhibition of PDI-driven insulin aggregation – biochemical, turbidity, absorbance, cherry-picked samples, dose response (AID 602350); format: functional
Protein disulfide-isomerase, sequence (P07237 whole entry): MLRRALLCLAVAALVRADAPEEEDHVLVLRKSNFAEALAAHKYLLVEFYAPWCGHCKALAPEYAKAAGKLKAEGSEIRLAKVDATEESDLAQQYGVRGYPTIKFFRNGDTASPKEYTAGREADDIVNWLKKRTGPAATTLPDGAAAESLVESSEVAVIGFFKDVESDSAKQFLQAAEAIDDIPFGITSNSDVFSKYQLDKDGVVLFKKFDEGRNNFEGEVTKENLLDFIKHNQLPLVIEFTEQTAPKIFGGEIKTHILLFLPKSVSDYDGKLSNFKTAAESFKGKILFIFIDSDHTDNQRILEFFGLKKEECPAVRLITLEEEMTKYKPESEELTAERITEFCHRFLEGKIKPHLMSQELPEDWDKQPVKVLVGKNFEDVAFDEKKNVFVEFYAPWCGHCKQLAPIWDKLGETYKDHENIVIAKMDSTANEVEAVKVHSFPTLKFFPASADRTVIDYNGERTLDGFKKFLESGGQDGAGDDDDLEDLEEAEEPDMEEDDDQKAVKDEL

[9] = test system: Escherichia coli; test: microbe, parasite or virus in culture
[10] = test system: Escherichia coli; test: microbe, parasite or virus in culture; remark: listed apart in the source
[11] = biological target: T2, Aurora kinase A (Homo sapiens, UniProt O14965); format: functional;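 further: value from the Navigating the Kinome kinase panel profiling, panel entry STK6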
T2 sequence (O14965 whole entry): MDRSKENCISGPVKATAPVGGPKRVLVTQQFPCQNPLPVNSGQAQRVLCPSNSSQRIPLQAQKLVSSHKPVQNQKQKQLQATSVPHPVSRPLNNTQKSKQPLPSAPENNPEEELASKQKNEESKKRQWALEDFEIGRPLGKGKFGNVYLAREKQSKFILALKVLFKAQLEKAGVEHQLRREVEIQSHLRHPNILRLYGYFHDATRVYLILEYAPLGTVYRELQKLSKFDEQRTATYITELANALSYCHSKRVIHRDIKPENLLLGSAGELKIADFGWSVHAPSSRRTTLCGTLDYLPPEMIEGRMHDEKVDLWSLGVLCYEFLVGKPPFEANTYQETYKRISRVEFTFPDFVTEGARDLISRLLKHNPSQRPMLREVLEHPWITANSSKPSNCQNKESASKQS

[12] = biological target: Cell division cycle 7-related protein kinase (Homo sapiens, UniProt O00311); format: functional;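 further: value obtained from a kinome-wide kinase panel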
Cell division cycle 7-related protein kinase, sequence (O00311 whole entry): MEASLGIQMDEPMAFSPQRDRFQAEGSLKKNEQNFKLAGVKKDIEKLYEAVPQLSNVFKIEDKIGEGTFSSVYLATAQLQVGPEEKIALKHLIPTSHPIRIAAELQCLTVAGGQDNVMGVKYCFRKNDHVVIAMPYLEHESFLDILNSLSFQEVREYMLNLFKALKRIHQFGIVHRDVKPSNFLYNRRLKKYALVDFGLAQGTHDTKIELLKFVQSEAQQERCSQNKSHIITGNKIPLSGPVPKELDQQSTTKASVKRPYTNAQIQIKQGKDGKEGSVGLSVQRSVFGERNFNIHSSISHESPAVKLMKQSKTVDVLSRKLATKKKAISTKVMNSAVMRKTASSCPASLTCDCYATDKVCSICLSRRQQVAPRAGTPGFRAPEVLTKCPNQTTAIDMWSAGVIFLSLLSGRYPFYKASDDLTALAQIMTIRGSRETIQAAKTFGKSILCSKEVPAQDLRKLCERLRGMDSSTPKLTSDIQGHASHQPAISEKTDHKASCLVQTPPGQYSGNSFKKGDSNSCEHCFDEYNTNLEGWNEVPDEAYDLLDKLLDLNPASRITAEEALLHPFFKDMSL

[13] = biological target: Aurora kinase B (Homo sapiens, UniProt Q96GD4); format: functional
Aurora kinase B, sequence (Q96GD4 whole entry): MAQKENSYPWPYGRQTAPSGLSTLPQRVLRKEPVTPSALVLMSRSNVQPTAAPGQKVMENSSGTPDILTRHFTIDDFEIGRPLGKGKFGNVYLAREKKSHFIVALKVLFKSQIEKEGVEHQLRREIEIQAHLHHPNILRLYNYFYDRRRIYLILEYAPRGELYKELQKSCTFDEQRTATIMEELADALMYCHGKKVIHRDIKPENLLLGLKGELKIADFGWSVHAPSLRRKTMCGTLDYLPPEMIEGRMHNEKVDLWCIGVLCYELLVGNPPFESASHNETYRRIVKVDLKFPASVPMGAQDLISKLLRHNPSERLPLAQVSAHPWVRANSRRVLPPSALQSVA

[14] = biological target: ALK tyrosine kinase receptor (Homo sapiens, UniProt Q9UM73); format: functional;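 further: ALK tested as one member of a kinase panel screen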
ALK tyrosine kinase receptor, sequence (Q9UM73 whole entry): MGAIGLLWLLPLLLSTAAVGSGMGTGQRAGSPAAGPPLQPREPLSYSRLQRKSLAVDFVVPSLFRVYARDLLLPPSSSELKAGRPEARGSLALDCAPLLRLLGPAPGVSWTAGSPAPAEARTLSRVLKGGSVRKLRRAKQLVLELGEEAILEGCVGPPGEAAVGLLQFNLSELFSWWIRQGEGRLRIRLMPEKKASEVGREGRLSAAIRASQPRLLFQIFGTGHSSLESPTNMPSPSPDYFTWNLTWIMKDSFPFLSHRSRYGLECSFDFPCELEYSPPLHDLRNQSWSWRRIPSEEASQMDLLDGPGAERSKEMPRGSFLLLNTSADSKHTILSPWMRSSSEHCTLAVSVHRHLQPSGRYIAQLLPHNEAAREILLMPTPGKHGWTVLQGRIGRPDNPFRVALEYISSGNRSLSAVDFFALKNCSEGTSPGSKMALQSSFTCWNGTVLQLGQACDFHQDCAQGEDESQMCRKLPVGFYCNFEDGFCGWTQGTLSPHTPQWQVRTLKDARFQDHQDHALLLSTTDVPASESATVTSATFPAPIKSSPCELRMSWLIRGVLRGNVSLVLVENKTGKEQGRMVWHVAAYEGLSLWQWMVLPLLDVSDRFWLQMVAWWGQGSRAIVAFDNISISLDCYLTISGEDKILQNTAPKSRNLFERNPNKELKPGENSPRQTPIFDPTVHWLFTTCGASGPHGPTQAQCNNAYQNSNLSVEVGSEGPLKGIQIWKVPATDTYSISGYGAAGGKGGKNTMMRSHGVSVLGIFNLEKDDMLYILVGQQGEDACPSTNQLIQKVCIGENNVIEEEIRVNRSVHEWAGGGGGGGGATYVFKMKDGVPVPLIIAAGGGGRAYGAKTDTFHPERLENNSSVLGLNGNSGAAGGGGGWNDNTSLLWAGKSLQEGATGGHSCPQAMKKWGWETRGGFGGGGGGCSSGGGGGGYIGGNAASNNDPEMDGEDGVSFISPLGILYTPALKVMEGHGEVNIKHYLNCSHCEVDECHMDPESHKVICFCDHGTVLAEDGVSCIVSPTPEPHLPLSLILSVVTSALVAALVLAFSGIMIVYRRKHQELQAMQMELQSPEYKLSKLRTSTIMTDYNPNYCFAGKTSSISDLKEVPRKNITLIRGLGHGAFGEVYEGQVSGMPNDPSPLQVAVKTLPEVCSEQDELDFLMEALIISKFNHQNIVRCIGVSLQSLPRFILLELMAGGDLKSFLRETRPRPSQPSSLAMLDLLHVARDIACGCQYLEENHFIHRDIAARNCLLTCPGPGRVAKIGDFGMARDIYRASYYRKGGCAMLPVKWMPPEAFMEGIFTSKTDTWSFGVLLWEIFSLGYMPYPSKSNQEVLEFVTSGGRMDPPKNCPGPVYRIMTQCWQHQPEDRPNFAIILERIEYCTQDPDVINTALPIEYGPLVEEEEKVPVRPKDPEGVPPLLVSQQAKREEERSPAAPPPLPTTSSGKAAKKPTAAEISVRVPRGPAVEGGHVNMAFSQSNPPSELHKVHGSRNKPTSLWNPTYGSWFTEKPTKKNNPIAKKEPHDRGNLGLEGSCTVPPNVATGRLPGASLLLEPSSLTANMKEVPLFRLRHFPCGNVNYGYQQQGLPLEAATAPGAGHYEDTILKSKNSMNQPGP

[15] = biological target: Wee1-like protein kinase (Homo sapiens, UniProt P30291); test: Navigating the Kinome. Panel member name: WEE1; format: functional
Wee1-like protein kinase, sequence (P30291 whole entry): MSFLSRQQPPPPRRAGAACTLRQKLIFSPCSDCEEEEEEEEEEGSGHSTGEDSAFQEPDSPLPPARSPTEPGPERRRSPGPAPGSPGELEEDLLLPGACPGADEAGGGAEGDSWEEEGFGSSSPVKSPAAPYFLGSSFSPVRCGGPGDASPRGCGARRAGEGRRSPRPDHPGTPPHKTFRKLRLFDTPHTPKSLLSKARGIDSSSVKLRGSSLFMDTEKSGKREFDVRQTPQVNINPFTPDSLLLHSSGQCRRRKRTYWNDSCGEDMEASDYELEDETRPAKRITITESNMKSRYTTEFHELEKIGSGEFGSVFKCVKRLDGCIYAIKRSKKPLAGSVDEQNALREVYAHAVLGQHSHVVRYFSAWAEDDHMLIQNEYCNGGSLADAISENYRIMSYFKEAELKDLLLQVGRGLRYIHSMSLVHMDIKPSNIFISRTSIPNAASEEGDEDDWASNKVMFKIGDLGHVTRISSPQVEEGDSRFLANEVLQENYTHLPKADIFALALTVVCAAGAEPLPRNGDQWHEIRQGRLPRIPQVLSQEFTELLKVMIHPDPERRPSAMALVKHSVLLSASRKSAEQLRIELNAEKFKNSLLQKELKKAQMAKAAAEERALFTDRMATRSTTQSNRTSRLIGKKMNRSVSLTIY

[16] = biological target: Melanin-concentrating hormone receptor 1 (Homo sapiens, UniProt Q99705); test: Late-stage fluorescence-based counterscreen for antagonists of the G-protein coupled receptor 7 (GPR7): cell-based dose response assay to identify antagonists of the melanin-concentrating hormone receptor 1 (MCHR1) Set 6.; format: functional
Melanin-concentrating hormone receptor 1, sequence (Q99705 whole entry): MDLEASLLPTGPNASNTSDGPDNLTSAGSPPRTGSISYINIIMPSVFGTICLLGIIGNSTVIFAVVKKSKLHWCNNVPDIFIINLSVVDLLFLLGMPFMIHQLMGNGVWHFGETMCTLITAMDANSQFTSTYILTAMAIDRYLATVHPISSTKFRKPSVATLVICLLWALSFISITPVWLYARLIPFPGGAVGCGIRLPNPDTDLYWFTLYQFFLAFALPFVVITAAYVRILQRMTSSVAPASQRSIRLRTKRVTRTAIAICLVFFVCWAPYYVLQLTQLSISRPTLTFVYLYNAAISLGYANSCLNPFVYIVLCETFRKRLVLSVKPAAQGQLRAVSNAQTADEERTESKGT

[17] = biological target: Neuropeptides B/W receptor type 1 (Homo sapiens, UniProt P48145); test: human NPBW1 receptor blockade, IC50 – cell-based, fluorescence, dose response, set 6, late-stage follow-up (AID 588583); format: functional
Neuropeptides B/W receptor type 1, sequence (P48145 whole entry): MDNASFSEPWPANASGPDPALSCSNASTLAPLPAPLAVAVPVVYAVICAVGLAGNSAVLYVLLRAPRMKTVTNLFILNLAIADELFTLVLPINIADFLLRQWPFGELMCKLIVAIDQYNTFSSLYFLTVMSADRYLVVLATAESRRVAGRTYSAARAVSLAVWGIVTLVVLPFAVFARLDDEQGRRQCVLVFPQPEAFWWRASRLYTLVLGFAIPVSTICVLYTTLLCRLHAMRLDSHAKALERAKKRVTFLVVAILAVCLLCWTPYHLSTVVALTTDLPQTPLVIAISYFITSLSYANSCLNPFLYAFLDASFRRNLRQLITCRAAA

CC(CN1CCN(C)CC1)OC(=O)c1ccccc1Cl (configuration not stated)
active: IC50 [1] 10000 nM | IC50 [2] 4220 nM

COc1cc2cc(C(=O)N3CC(COS(C)(=O)=O)c4ccc(O)cc43)[nH]c2c(OC)c1OC (configuration not stated)
active: AC50 [3] 708 nM | IC50 [4] 8570 nM | AC50 [5] < 260 nM | AC50 [6] 352 nM | AC50 [7] < 260 nM | AC50 [8] 18000 nM | AC50 [9] 4260 nM | AC50 [10] 22800 nM

COc1ccc(Nc2nccc(Nc3ccccc3C(=O)O)n2)cc1O
active: Ki [11] 20 nM | Ki [12] 0.126 nM | Ki [13] 5.01 nM

CCN1CCN(c2ccc(Nc3ncc(C(F)(F)F)c(Nc4ccc5[nH]ncc5c4)n3)cc2)CC1
active: Ki [14] 15.8 nM | Ki [15] 7.94 nM

CCOc1ccccc1Cn1ncc(Cl)c(Oc2ccc(OC)cc2)c1=O
active: IC50 [16] ~624 nM | IC50 [17] ~624 nM
